pIC50: −log10 of the molar value.
How the values were obtained:
ADAM10 = target: T1, ADAM10 (Homo sapiens, UniProt O14672); assay: IC50 of GI254023X (assay not given)
T1 sequence (O14672 214-748): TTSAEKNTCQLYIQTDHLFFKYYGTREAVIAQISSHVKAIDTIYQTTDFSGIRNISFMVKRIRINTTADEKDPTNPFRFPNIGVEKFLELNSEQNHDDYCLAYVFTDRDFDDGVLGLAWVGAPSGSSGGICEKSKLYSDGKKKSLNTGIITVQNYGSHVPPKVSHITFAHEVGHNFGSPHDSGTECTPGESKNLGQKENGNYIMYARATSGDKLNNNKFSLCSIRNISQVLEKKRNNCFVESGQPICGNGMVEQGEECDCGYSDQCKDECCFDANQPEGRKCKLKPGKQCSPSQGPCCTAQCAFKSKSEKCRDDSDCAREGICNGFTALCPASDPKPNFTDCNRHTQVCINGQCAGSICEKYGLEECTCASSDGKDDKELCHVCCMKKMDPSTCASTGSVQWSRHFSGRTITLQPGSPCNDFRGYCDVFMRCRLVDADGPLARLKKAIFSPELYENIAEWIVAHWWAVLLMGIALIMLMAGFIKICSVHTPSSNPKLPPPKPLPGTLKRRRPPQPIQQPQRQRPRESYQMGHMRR

A549 cells = type: cell-based
[1] = system: Hla-mediated cytotoxicity; settings: cited from earlier work

Structure (SMILES): CNC(=O)[C@@H](NC(=O)[C@H](CCCc1ccccc1)[C@H](C)N(O)C=O)C(C)(C)C [GI254023X, (R)—N—((S)-3,3-dimethyl-1-(methylamino)-1-oxobutan-2-yl)-2-((S)-1-(N-hydroxyformamido)-ethyl)-5-phenylpentanamide]
- pIC50 (ADAM10): ~5.30
- inhibition of binding of radiolabelled Hla to A549 cells (A549 cells): inhibition of binding of radiolabelled Hla to A549 cells
- effect on Hla-mediated cytotoxicity [1]: prevents Hla-mediated cytotoxicity
